{"source": "patent US9115093B2", "about": "“Substituted bicyclic dihydropyrimidinones and their use as inhibitors of neutrophil elastase activity” (Boehringer Ingelheim International GmbH, priority 2013, dated 2015)"}
{"molecular_target": "T1, neutrophil elastase (Homo sapiens, UniProt P08246)", "T1 sequence (P08246 30-247 limits assumed)": "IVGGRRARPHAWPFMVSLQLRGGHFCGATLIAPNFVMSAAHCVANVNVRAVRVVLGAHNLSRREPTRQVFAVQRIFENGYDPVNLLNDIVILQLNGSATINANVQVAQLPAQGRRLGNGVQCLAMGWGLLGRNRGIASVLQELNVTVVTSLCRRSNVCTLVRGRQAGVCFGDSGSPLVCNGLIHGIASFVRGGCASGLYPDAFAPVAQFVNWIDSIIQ", "experiment": "Human Neutrophil Elastase Assay", "assay_type": "biochemical", "set-up": "purchased Calbiochem 324681", "conditions": "substrate MeOSuc-Ala-Ala-Pro-Val-AMC, pH 7.5, room temperature", "outline": "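Readout: AMC fluorescence (ex 380, em 460 nm) after 60 min room-temperature reaction with 250 nM MeOSuc-AAPV-AMC, following 15 min compound–enzyme preincubation. Buffer: Tris/NaCl pH 7.5, 0.01% BSA.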", "units": {"IC50": "nM"}}
{"smiles": "CS(=O)(=O)c1cc(C#N)ccc1C1C2=C(CCCC2=O)N(c2cccc(C(F)(F)F)c2)C(=O)N1CC1CCOCC1", "note": "(stereo not shown) [Example 58.5]", "IC50": 1.9}
{"smiles": "CS(=O)(=O)c1cc(C#N)ccc1C1C2=C(CCCC2=O)N(c2cccc(C(F)(F)F)c2)C(=O)N1CCC1CCOCC1", "note": "(stereo not shown) [Example 58.6]", "IC50": "< 1"}
{"smiles": "CS(=O)(=O)c1cc(C#N)ccc1[C@@H]1C2=C(CCCC2=O)N(c2cccc(C(F)(F)F)c2)C(=O)N1CC#N", "note": "[Example 59, (S)-4-(3-(Cyanomethyl)-2,5-dioxo-1-(3-(trifluoromethyl)phenyl)-1,2,3,4,5,6,7,8-octahydroquinazolin-4-yl)-3-(methylsulfonyl)benzonitrile]", "IC50": 1.8}
{"smiles": "CCOC(=O)C(F)N1C(=O)N(c2cccc(C(F)(F)F)c2)C2=C(C(=O)CCC2)C1c1ccc(C#N)cc1", "note": "(stereo not shown) [Example 60, Ethyl 2-(4-(4-Cyanophenyl)-2,5-dioxo-1-(3-(trifluoromethyl)phenyl)-1,2,5,6,7,8-hexahydroquinazolin-3(4H)-yl)-2-fluoroacetate]", "IC50": 21.6}
{"smiles": "CC(C(=O)NCCO)N1C(=O)N(c2cccc(C(F)(F)F)c2)C2=C(C(=O)CCC2)C1c1ccc(C#N)cc1", "note": "(stereo not shown) [Example 61, 2-(4-(4-Cyanophenyl)-2,5-dioxo-1-(3-(trifluoromethyl)phenyl)-1,2,5,6,7,8-hexahydroquinazolin-3(4H)-yl)-N-(2-hydroxyethyl)propanamide]", "IC50": 6.6}
{"smiles": "CN(C)C(=O)CN1C(=O)N(c2cccc(C(F)(F)F)c2)C2=C(C(=O)CCC2)C1c1ccc(C#N)cc1S(C)(=O)=O", "note": "(stereo not shown) [Example 62, 2-(4-(4-Cyano-2-(methylsulfonyl)phenyl)-2,5-dioxo-1-(3-(trifluoromethyl)phenyl)-1,2,5,6,7,8-hexahydroquinazolin-3(4H)-yl)-N,N-dimethylacetamide]", "IC50": 1.2}
{"smiles": "Cc1cc(C#N)ccc1C1C2=C(CCCC2=O)N(c2cccc(C(F)(F)F)c2)C(=O)N1C", "note": "(stereo not shown) [Example 63, 3-Methyl-4-(3-methyl-2,5-dioxo-1-(3-(trifluoromethyl)phenyl)-1,2,3,4,5,6,7,8-octahydroquinazolin-4-yl)benzonitrile]", "IC50": 7.9}
{"smiles": "CN1C(=O)N(c2ccnc(C(F)(F)F)c2)C2=C(C(=O)CCC2)C1c1ccc(C#N)cc1", "note": "(stereo not shown) [Example 65, 4-(3-Methyl-2,5-dioxo-1-(2-(trifluoromethyl)pyridin-4-yl)-1,2,3,4,5,6,7,8-octahydroquinazolin-4-yl)benzonitrile]", "IC50": 22.6}
{"smiles": "Cc1cc(C#N)ccc1C1C2=C(CCCC2=O)N(c2cccc(C(F)(F)F)c2)C(=O)N1S(C)(=O)=O", "note": "(stereo not shown) [Example 66, 3-Methyl-4-(3-(methylsulfonyl)-2,5-dioxo-1-(3-(trifluoromethyl)phenyl)-1,2,3,4,5,6,7,8-octahydroquinazolin-4-yl)benzonitrile]", "IC50": 2}
{"smiles": "CS(=O)(=O)N1C(=O)N(c2cccc(C(F)(F)F)c2)C2=C(C(=O)CCC2)C1c1ccc(C#N)cc1Cl", "note": "(stereo not shown) [Example 67, 3-Chloro-4-(3-(methylsulfonyl)-2,5-dioxo-1-(3-(trifluoromethyl)phenyl)-1,2,3,4,5,6,7,8-octahydroquinazolin-4-yl)benzonitrile]", "IC50": 6.7}
{"smiles": "CS(=O)(=O)N1C(=O)N(c2ccnc(C(F)(F)F)c2)C2=C(C(=O)CCC2)C1c1ccc(C#N)cc1", "note": "(stereo not shown) [Example 69, 4-(3-(Methylsulfonyl)-2,5-dioxo-1-(2-(trifluoromethyl)pyridin-4-yl)-1,2,3,4,5,6,7,8-octahydroquinazolin-4-yl)benzonitrile]", "IC50": 23.8}
{"smiles": "N#Cc1ccc(C2C3=C(CCCC3=O)N(c3cccc(C(F)(F)F)c3)C(=O)N2C(N)=O)cc1", "note": "(stereo not shown) [Example 70, 4-(4-Cyanophenyl)-2,5-dioxo-1-(3-(trifluoromethyl)phenyl)-1,2,5,6,7,8-hexahydroquinazoline-3(4H)-carboxamide]", "IC50": 6}
{"smiles": "CCNC(=O)N1C(=O)N(c2cccc(C(F)(F)F)c2)C2=C(C(=O)CCC2)C1c1ccc(C#N)cc1", "note": "(stereo not shown) [Example 70.1]", "IC50": "< 1"}
{"smiles": "N#CCNC(=O)N1C(=O)N(c2cccc(C(F)(F)F)c2)C2=C(C(=O)CCC2)C1c1ccc(C#N)cc1", "note": "(stereo not shown) [Example 70.2]", "IC50": "< 1"}
{"smiles": "N#Cc1ccc(C2C3=C(CCCC3=O)N(c3cccc(C(F)(F)F)c3)C(=O)N2C(=O)NC2CC2)cc1", "note": "(stereo not shown) [Example 70.3]", "IC50": "< 1"}
{"smiles": "CC(C)NC(=O)N1C(=O)N(c2cccc(C(F)(F)F)c2)C2=C(C(=O)CCC2)C1c1ccc(C#N)cc1", "note": "(stereo not shown) [Example 70.4]", "IC50": 1.4}
{"smiles": "N#Cc1ccc(C2C3=C(CCCC3=O)N(c3cccc(C(F)(F)F)c3)C(=O)N2C(=O)NCC2CC2)cc1", "note": "(stereo not shown) [Example 70.5]", "IC50": 1.4}
{"smiles": "N#Cc1ccc(C2C3=C(CCCC3=O)N(c3cccc(C(F)(F)F)c3)C(=O)N2C(=O)NCC(F)F)cc1", "note": "(stereo not shown) [Example 70.6]", "IC50": "< 1"}
{"smiles": "N#Cc1ccc(C2C3=C(CCCC3=O)N(c3cccc(C(F)(F)F)c3)C(=O)N2C(=O)NCC2(O)CC2)cc1", "note": "(stereo not shown) [Example 70.7]", "IC50": 1.4}
{"smiles": "N#Cc1ccc(C2C3=C(CCCC3=O)N(c3cccc(C(F)(F)F)c3)C(=O)N2C(=O)NC2CCOC2)cc1", "note": "(stereo not shown) [Example 70.8]", "IC50": "< 1"}
{"smiles": "CC(C)(CO)NC(=O)N1C(=O)N(c2cccc(C(F)(F)F)c2)C2=C(C(=O)CCC2)C1c1ccc(C#N)cc1", "note": "(stereo not shown) [Example 70.10]", "IC50": 2.4}
{"smiles": "N#Cc1ccc(C2C3=C(CCCC3=O)N(c3cccc(C(F)(F)F)c3)C(=O)N2C(=O)NCC2(O)CCC2)cc1", "note": "(stereo not shown) [Example 70.13]", "IC50": 2.1}
{"smiles": "N#Cc1ccc(C2C3=C(CCCC3=O)N(c3cccc(C(F)(F)F)c3)C(=O)N2C(=O)NC2CCOCC2)cc1", "note": "(stereo not shown) [Example 70.14]", "IC50": "< 1"}
{"smiles": "N#Cc1ccc(C2C3=C(CCCC3=O)N(c3cccc(C(F)(F)F)c3)C(=O)N2C(=O)NCC2CC(O)C2)cc1", "note": "(stereo not shown) [Example 70.15]", "IC50": "< 1"}
{"smiles": "CC(C)(O)CCNC(=O)N1C(=O)N(c2cccc(C(F)(F)F)c2)C2=C(C(=O)CCC2)C1c1ccc(C#N)cc1", "note": "(stereo not shown) [Example 70.16]", "IC50": 1.1}
{"smiles": "N#Cc1ccc(C2C3=C(CCCC3=O)N(c3cccc(C(F)(F)F)c3)C(=O)N2C(=O)NC2CS(=O)(=O)C2)cc1", "note": "(stereo not shown) [Example 70.18]", "IC50": "< 1"}
{"smiles": "N#Cc1ccc(C2C3=C(CCCC3=O)N(c3cccc(C(F)(F)F)c3)C(=O)N2C(=O)NC2CCS(=O)(=O)C2)cc1", "note": "(stereo not shown) [Example 70.19]", "IC50": "< 1"}
{"smiles": "N#Cc1ccc(C2C3=C(CCCC3=O)N(c3cccc(C(F)(F)F)c3)C(=O)N2C(=O)NC2CCCS(=O)(=O)C2)cc1", "note": "(stereo not shown) [Example 70.20]", "IC50": "< 1"}
{"smiles": "N#Cc1ccc(C2C3=C(CCCC3=O)N(c3cccc(C(F)(F)F)c3)C(=O)N2C(=O)NC2CC[S+]([O-])CC2)cc1", "note": "(stereo not shown) [Example 71, 4-(4-Cyanophenyl)-2,5-dioxo-N-(1-oxo-hexahydro-1λ^4-thiopyran-4-yl)-1-(3-(trifluoromethyl)phenyl)-1,2,5,6,7,8-hexahydroquinazoline-3(4H)-carboxamide]", "IC50": "< 1"}
{"smiles": "N#Cc1ccc(C2C3=C(CCCC3=O)N(c3cccc(C(F)(F)F)c3)C(=O)N2C(=O)NC2CCS(=N)(=O)CC2)cc1", "note": "(stereo not shown) [Example 72, 4-(4-Cyanophenyl)-2,5-dioxo-N-(1-imino-1-oxo-hexahydro-1λ^6-thiopyran-4-yl)-1-(3-(trifluoromethyl)phenyl)-1,2,5,6,7,8-hexahydroquinazoline-3(4H)-carboxamide]", "IC50": "< 1"}
{"smiles": "CNC(=O)N1C(=O)N(c2cccc(C(F)(F)F)c2)C2=C(C(=O)CCC2)C1c1ccc(C#N)cc1C", "note": "(stereo not shown) [Example 73, 4-(4-Cyano-2-methylphenyl)-N-methyl-2,5-dioxo-1-(3-(trifluoromethyl)phenyl)-1,2,5,6,7,8-hexahydroquinazoline-3(4H)-carboxamide]", "IC50": "< 1"}
{"smiles": "CCNC(=O)N1C(=O)N(c2cccc(C(F)(F)F)c2)C2=C(C(=O)CCC2)C1c1ccc(C#N)cc1C", "note": "(stereo not shown) [Example 74, 4-(4-Cyano-2-methylphenyl)-N-ethyl-2,5-dioxo-1-(3-(trifluoromethyl)phenyl)-1,2,5,6,7,8-hexahydroquinazoline-3(4H)-carboxamide]", "IC50": "< 1"}
{"smiles": "CS(=O)(=O)c1cc(C#N)ccc1[C@@H]1C2=C(CCCC2=O)N(c2cccc(C(F)(F)F)c2)C(=O)N1C(=O)NCC#N", "note": "[Example 75.1]", "IC50": "< 1"}
{"smiles": "CS(=O)(=O)c1cc(C#N)ccc1[C@@H]1C2=C(CCCC2=O)N(c2cccc(C(F)(F)F)c2)C(=O)N1C(=O)NC1CC1", "note": "[Example 75.2]", "IC50": "< 1"}
{"smiles": "CC(C#N)NC(=O)N1C(=O)N(c2cccc(C(F)(F)F)c2)C2=C(C(=O)CCC2)[C@H]1c1ccc(C#N)cc1S(C)(=O)=O", "note": "(stereo partly shown) [Example 75.4]", "IC50": "< 1"}
{"smiles": "CS(=O)(=O)c1cc(C#N)ccc1[C@@H]1C2=C(CCCC2=O)N(c2cccc(C(F)(F)F)c2)C(=O)N1C(=O)NC1COC1", "note": "[Example 75.5]", "IC50": "< 1"}
{"smiles": "COCCNC(=O)N1C(=O)N(c2cccc(C(F)(F)F)c2)C2=C(C(=O)CCC2)[C@H]1c1ccc(C#N)cc1S(C)(=O)=O", "note": "[Example 75.6]", "IC50": "< 1"}
{"smiles": "CS(=O)(=O)c1cc(C#N)ccc1[C@@H]1C2=C(CCCC2=O)N(c2cccc(C(F)(F)F)c2)C(=O)N1C(=O)NC1(C#N)CC1", "note": "[Example 75.8]", "IC50": "< 1"}
{"smiles": "CS(=O)(=O)c1cc(C#N)ccc1[C@@H]1C2=C(CCCC2=O)N(c2cccc(C(F)(F)F)c2)C(=O)N1C(=O)NC1CCOC1", "note": "(stereo partly shown) [Example 75.10]", "IC50": "< 1"}
{"smiles": "CS(=O)(=O)c1cc(C#N)ccc1[C@@H]1C2=C(CCCC2=O)N(c2cccc(C(F)(F)F)c2)C(=O)N1C(=O)NC1CC(O)C1", "note": "(stereo partly shown) [Example 75.11]", "IC50": "< 1"}
{"smiles": "CC(C)(O)CNC(=O)N1C(=O)N(c2cccc(C(F)(F)F)c2)C2=C(C(=O)CCC2)[C@H]1c1ccc(C#N)cc1S(C)(=O)=O", "note": "[Example 75.12]", "IC50": "< 1"}
{"smiles": "N#Cc1ccc(C2C3=C(CCCC3=O)N(c3ccnc(C(F)(F)F)c3)C(=O)N2C(=O)NC2CC2)cc1", "note": "(stereo not shown) [Example 76, 4-(4-Cyanophenyl)-N-cyclopropyl-2,5-dioxo-1-(2-(trifluoromethyl)pyridin-4-yl)-1,2,5,6,7,8-hexahydroquinazoline-3(4H)-carboxamide]", "IC50": 1.7}
{"smiles": "CNC(=O)N1C(=O)N(c2ccnc(C(F)(F)F)c2)C2=C(C(=O)CCC2)C1c1ccc(C#N)cc1", "note": "(stereo not shown) [Example 76.1]", "IC50": 4.4}
